From patent publication US20240092784A1, “CONDENSED HETEROCYCLIC COMPOUND” (NISSAN CHEMICAL CORPORATION, priority 2020, published 2024)
Where a name gives a salt, the structure may show the parent alone.

Molecular target: human SPR (Homo sapiens (Human), UniProt P35270)
Experiment: Evaluation Example 2: Measurement of human SPR inhibitory activity (seven concentrations, sepiapterin absorbance at 420 nm)
Format: biochemical
Conditions: Evaluation Example 2, seven concentrations 0.14 nM to 100 nM, 240 minutes at room temperature, read-out: IC50
Outline: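 Reactions ran 240 min at room temperature in 100 mM Tris-HCl pH 7.5 with 0.01% BSA. They contained tag-cleaved, E. coli-expressed full-length human SPR (diluted to 150 ng/mL), seven compound concentrations from 0.14 to 100 nM, and sepiapterin/NADPH added as a 120 μM/160 μM solution. Inhibition was calculated from sepiapterin absorbance at 420 nm.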

human SPR, sequence (P35270 whole entry): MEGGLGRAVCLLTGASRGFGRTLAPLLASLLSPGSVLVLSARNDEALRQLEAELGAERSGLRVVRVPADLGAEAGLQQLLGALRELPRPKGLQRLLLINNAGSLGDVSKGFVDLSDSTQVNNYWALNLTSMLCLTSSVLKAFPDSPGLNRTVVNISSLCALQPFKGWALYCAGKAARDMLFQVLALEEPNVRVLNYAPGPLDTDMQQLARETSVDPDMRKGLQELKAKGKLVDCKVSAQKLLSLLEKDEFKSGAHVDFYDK

Row | Compound | IC50 [nM]
1 | CC(C)Cn1c(=O)c(C(=O)NC2CC2)c(O)n2nc(N)c(/C=C/C(=O)N3CCC(F)(F)CC3)c12 [Synthesis Example 414, (E)-2-Amino-N-cyclopropyl-3-(3-(4,4-difluoropiperidin-1-yl)-3-oxoprop-1-en-1-yl)-7-hydroxy-4-isobutyl-5-oxo-4,5-dihydropyrazolo[1,5-a]pyrimidine-6-carboxamide hydrochloride] | 0.7
2 | COC[C@@H]1CCCN1C(=O)/C=C/c1c(C)nn2c(O)c(C(=O)NC3CC3)c(=O)n(CC(C)C)c12 [Synthesis Example 613, (S,E)-N-Cyclopropyl-7-hydroxy-4-isobutyl-3-(3-(2-(methoxymethyl)pyrrolidin-1-yl)-3-oxoprop-1-en-1-yl)-2-methyl-5-oxo-4,5-dihydropyrazolo[1,5-a]pyrimidine-6-carboxamide] | 1.04
3 | Cc1nn2c(O)c(C(=O)NC3CC3)c(=O)n(CC3CCOCC3)c2c1/C=C/C(=O)N1CCOCC1 [compound 575, (E)-N-Cyclopropyl-7-hydroxy-2-methyl-3-(3-morpholino-3-oxoprop-1-en-1-yl)-5-oxo-4-((tetrahydro-2H-pyran-4-yl)methyl)-4,5-dihydropyrazolo[1,5-a]pyrimidine-6-carboxamide] | 0.81
4 | CC(C)(C)Cn1c(=O)c(C(=O)NC2CC2)c(O)n2nc3[nH]c(=O)ccc3c12 [Synthesis Example 394, N-Cyclopropyl-4-hydroxy-1-neopentyl-2,8-dioxo-1,2,7,8-tetrahydropyrido[2′,3′:3,4]pyrazolo[1,5-a]pyrimidine-3-carboxamide] | 0.39
5 | COc1ncccc1-c1cc2n(CC(C)(C)C)c(=O)c(C(=O)NC3CC3)c(O)n2n1 [Synthesis Example 281, N-Cyclopropyl-7-hydroxy-2-(2-methoxypyridine-3-yl)-4-neopentyl-5-oxo-4,5-dihydropyrazolo[1,5-a]pyrimidine-6-carboxamide] | 3.08
6 | Cc1nn2c(O)c(C(=O)NC3CC3)c(=O)n(CC(C)C)c2c1/C=C/C(=O)N1[C@H](C)COC[C@H]1C [compound 576, N-Cyclopropyl-3-((E)-3-((3R,5R)-3,5-dimethylmorpholino)-3-oxoprop-1-en-1-yl)-7-hydroxy-4-isobutyl-2-methyl-5-oxo-4,5-dihydropyrazolo[1,5-a]pyrimidine-6-carboxamide] | 0.86
7 | Nc1nn2c(O)c(C(=O)NC3CC3)c(=O)n(CC3CCOCC3)c2c1/C=C/C1CCOCC1 [Synthesis Example 443, (E)-2-Amino-N-cyclopropyl-7-hydroxy-5-oxo-4-((tetrahydro-2H-pyran-4-yl)methyl)-3-(2-(tetrahydro-2H-pyran-4-yl)vinyl)-4,5-dihydropyrazolo[1,5-a]pyrimidine-6-carboxamide hydrochloride] | 0.65
8 | CC(C)Cn1c(=O)c(C(=O)NC2CC2)c(O)n2ncc(/C=C/C(=O)N(C)C3CC3)c12 [compound 497, (E)-N-Cyclopropyl-3-(3-(cyclopropyl(methyl)amino)-3-oxoprop-1-en-1-yl)-7-hydroxy-4-isobutyl-5-oxo-4,5-dihydropyrazolo[1,5-a]pyrimidine-6-carboxamide] | 0.59
9 | CC(C)Cn1c(=O)c(C(=O)NC2CC2)c(O)n2nc(N)c(/C=C/C(=O)N3CCOCC3)c12 [Synthesis Example 416, (E)-2-Amino-N-cyclopropyl-7-hydroxy-4-isobutyl-3-(3-morpholino-3-oxoprop-1-en-1-yl)-5-oxo-4,5-dihydropyrazolo[1,5-a]pyrimidine-6-carboxamide] | 0.59
10 | C/C(=C\c1cnn2c(O)c(C(=O)NC3CC3)c(=O)n(CC(C)C)c12)C(=O)NC(C)C [Synthesis Example 257, (E)-N-Cyclopropyl-7-hydroxy-4-isobutyl-3-(3-(isopropylamino)-2-methyl-3-oxoprop-1-en-1-yl)-5-oxo-4,5-dihydropyrazolo[1,5-a]pyrimidine-6-carboxamide] | 1.01
11 | CC(C)Cn1c(=O)c(C(=O)NC2CC2)c(O)n2ncc(/C=C/C(=O)N3CCC[C@@H]3C(F)F)c12 [compound 601, (R,E)-N-Cyclopropyl-3-(3-(2-(difluoromethyl)pyrrolidin-1-yl)-3-oxoprop-1-en-1-yl)-7-hydroxy-4-isobutyl-5-oxo-4,5-dihydropyrazolo[1,5-a]pyrimidine-6-carboxamide] | 1.08
12 | Cc1nn2c(O)c(C(=O)NC3CC3)c(=O)n(CC(C)C)c2c1/C=C/C(=O)N1CCCC12CCN(CC(F)(F)F)CC2 [Synthesis Example 666, (E)-N-Cyclopropyl-7-hydroxy-4-isobutyl-2-methyl-5-oxo-3-(3-oxo-3-(8-(2,2,2-trifluoroethyl)-1,8-diazaspiro[4.5]decan-1-yl)prop-1-en-1-yl)-4,5-dihydropyrazolo[1,5-a]pyrimidine-6-carboxamide] | 2.14
13 | C[C@@H](Nc1cc2n(CC(C)(C)C)c(=O)c(C(=O)NC3CC3)c(O)n2n1)c1ccccn1 [Synthesis Example 327, (R)-N-Cyclopropyl-7-hydroxy-4-neopentyl-5-oxo-2-((1-(pyridin-2-yl)ethyl)amino)-4,5-dihydropyrazolo[1,5-a]pyrimidine-6-carboxamide] | 2.39
14 | CC(C)Cn1c(=O)c(C(=O)NC2CC2)c(O)n2ncc(/C=C/C(=O)N3CCO[C@H](C(F)(F)F)C3)c12 [compound 530, (S,E)-N-Cyclopropyl-7-hydroxy-4-isobutyl-5-oxo-3-(3-oxo-3-(2-(trifluoromethyl)morpholino)prop-1-en-1-yl)-4,5-dihydropyrazolo[1,5-a]pyrimidine-6-carboxamide] | 1.14
15 | CC(C)Cn1c(=O)c(C(=O)NC2CC2)c(O)n2ncc(/C=C/C(C)(C)O)c12 [Synthesis Example 265, (E)-N-Cyclopropyl-7-hydroxy-3-(3-hydroxy-3-methylbut-1-en-1-yl)-4-isobutyl-5-oxo-4,5-dihydropyrazolo[1,5-a]pyrimidine-6-carboxamide] | 0.68
16 | CC(C)Cn1c(=O)c(C(=O)NC2CC2)c(O)n2ncc(C(=O)NCc3ccc(C#N)cc3)c12 [Synthesis Example 232, N3-(4-Cyanobenzyl)-N6-cyclopropyl-7-hydroxy-4-isobutyl-5-oxo-4,5-dihydropyrazolo[1,5-a]pyrimidine-3,6-dicarboxamide] | 1.25
17 | CC[C@H]1CCCN1C(=O)/C=C/c1c(C)nn2c(O)c(C(=O)NC3CC3)c(=O)n(CC(C)C)c12 [Synthesis Example 640, (S,E)-N-Cyclopropyl-3-(3-(2-ethylpyrrolidin-1-yl)-3-oxoprop-1-en-1-yl)-7-hydroxy-4-isobutyl-2-methyl-5-oxo-4,5-dihydropyrazolo[1,5-a]pyrimidine-6-carboxamide] | 1.16
18 | CC1(Cn2c(=O)c(C(=O)NC3CC3)c(O)n3ncc(/C=C/C(=O)N4C[C@@H]5C[C@H]4CO5)c23)CC1 [Synthesis Example 374] | 0.65
19 | CNc1nn2c(O)c(C(=O)NC3CC3)c(=O)n(CC(C)C)c2c1/C=C/C(=O)N1CC[C@H](F)C1 [Synthesis Example 429, (S,E)-N-Cyclopropyl-3-(3-(3-fluoropyrrolidin-1-yl)-3-oxoprop-1-en-1-yl)-7-hydroxy-4-isobutyl-2-(methylamino)-5-oxo-4,5-dihydropyrazolo[1,5-a]pyrimidine-6-carboxamide] | 0.8
20 | CC(C)Cn1c(=O)c(C(=O)NC2CC2)c(O)n2ncc(/C=C/C(=O)N3[C@H](C)COC[C@@H]3C)c12 [compound 557, N-Cyclopropyl-3-((E)-3-(cis-3,5-dimethylmorpholino)-3-oxoprop-1-en-1-yl)-7-hydroxy-4-isobutyl-5-oxo-4,5-dihydropyrazolo[1,5-a]pyrimidine-6-carboxamide] | 0.81
21 | C/C(=C\c1cnn2c(O)c(C(=O)NC3CC3)c(=O)n(CC(C)C)c12)C(=O)N1CCN(C2CC(F)(F)C2)CC1 [Synthesis Example 255, (E)-N-Cyclopropyl-3-(3-(4-(3,3-difluorocyclobutyl)piperazin-1-yl)-2-methyl-3-oxoprop-1-en-1-yl)-7-hydroxy-4-isobutyl-5-oxo-4,5-dihydropyrazolo[1,5-a]pyrimidine-6-carboxamide] | 1.02
22 | CC(C)Cn1c(=O)c(C(=O)NC2CC2)c(O)n2nc(N)c(/C=C/C(=O)N3[C@@H](C)COC[C@@H]3C)c12 [Synthesis Example 422, 2-Amino-N-cyclopropyl-3-((E)-3-((3S,5S)-3,5-dimethylmorpholino)-3-oxoprop-1-en-1-yl)-7-hydroxy-4-isobutyl-5-oxo-4,5-dihydropyrazolo[1,5-a]pyrimidine-6-carboxamide] | 0.75
23 | CC(C)(C)Cn1c(=O)c(C(=O)NC2CC2)c(O)n2nc(Nc3cncc(C#N)n3)cc12 [Synthesis Example 324, 2-((6-Cyanopyrazin-2-yl)amino)-N-cyclopropyl-7-hydroxy-4-neopentyl-5-oxo-4,5-dihydropyrazolo[1,5-a]pyrimidine-6-carboxamide] | 1.61

Same assay, conditions: sepiapterin absorbance, Table 41, read-out: concentration at 50% inhibition of human SPR (IC50)

Row | Compound | IC50 [nM]
24 | CC(C)Cn1c(=O)c(C(=O)NC2CC2)c(O)n2ncc(/C=C/C(=O)N3C[C@@H](F)[C@H](F)C3)c12 (racemic) [Synthesis Example 723, N-Cyclopropyl-3-((E)-3-(trans-3,4-difluoropyrrolidin-1-yl)-3-oxoprop-1-en-1-yl)-7-hydroxy-4-isobutyl-5-oxo-4,5-dihydropyrazolo[1,5-a]pyrimidine-6-carboxamide (racemate)] | 0.69
25 | Cc1nn2c(O)c(C(=O)NC3CC3)c(=O)n(CC(C)C)c2c1/C=C/C(=O)N1CCN(CC2CC(F)(F)C2)C[C@H]1C [Synthesis Example 704, (R,E)-N-Cyclopropyl-3-(3-(4-((3,3-difluorocyclobutyl)methyl)-2-methylpiperazin-1-yl)-3-oxoprop-1-en-1-yl)-7-hydroxy-4-isobutyl-2-methyl-5-oxo-4,5-dihydropyrazolo[1,5-a]pyrimidine-6-carboxamide] | 1.52
